Among the targets are A*6801 (Homo sapiens, UniProt P04439, A269V/D185E/E176V/E277Q/E87N/F33Y/G231S/I121M/I166T/I218V/L180W/L300P/L318F/N151K/P208A/P217A/Q86R/R169H/T345S); HLA-A3.2 (A*0301) (Homo sapiens, UniProt P04439); A*3301 (Homo sapiens, UniProt P04439, A270S/D185E/E176V/E277Q/E87N/F33T/G231S/H175R/I121M/I218V/I322F/K168Q/K210R/L300P/L318F/M331R/P217A/Q86R/Q94H/R138Q/T323A/T345S/T97I/V358M/Y195H); A31 (A*3101) (Homo sapiens, UniProt P04439, A270S/D185E/E176V/E277Q/F33T/G231S/G80R/H175R/I121M/I218V/I322F/K168Q/L300P/L318F/M331R/P217A/Q94H/R138Q/T323A/T345S/T97I/V358M); HLA-A11 (A*1101) (Homo sapiens, UniProt P04439, A114D/D185E/E176A/F33Y/L180Q/S129P/T187R).

Assay in all cases: biochemical
Format in all cases: binding

pIC50: −log10 of the molar value. No end group written: not given here.

As usually defined, the pIC50 is the negative decadic logarithm of the IC50, by convention in mol/L. Consider KQEAVRHFPR [Peptide 9017.0239], for which the pIC50 was 5.17 on A*6801; 5.03 on HLA-A3.2 (A*0301); 6.24 at A*3301; 8.00 against A31 (A*3101); 6.40 on HLA-A11 (A*1101).
On the same counts, the results for GTMCRHYKR [Peptide 1587.34] are 7.25, 6.21, 6.65, 7.70 and 7.51.
On the same counts, the results for WTIAYIEYRK [Peptide 9017.0244] are 8.92, 5.33, 6.31, 6.05 and 7.21.
On the same counts, the results for TVSATQLVK [Peptide 1589.08] are 7.51, 8.19, less than 4.70, 4.84 and 8.36.
Turning to KSFFSRTWCK [Peptide 88.0170], the pIC50 was 6.66 at A*6801; 8.10 at HLA-A3.2 (A*0301); 7.66 against A*3301; 8.27 against A31 (A*3101); 7.92 against HLA-A11 (A*1101).
HLFDYSWYK [Peptide 76.0165]: the pIC50 at A*6801 was 8.68; on HLA-A3.2 (A*0301) it was 8.39; against A*3301 it was 7.21; against A31 (A*3101) it was 7.44; on HLA-A11 (A*1101), 9.00.
On to LFYSKVRKYK [Peptide 88.0098], for which the pIC50 on A*6801 is 5.70; against HLA-A3.2 (A*0301) it was 6.17; against A*3301, 7.52; against A31 (A*3101) it was 7.74; against HLA-A11 (A*1101) it was 5.59.
Taken in the same sequence, the figures for TVNEYNTHK [Peptide 1589.36] were 7.31, 7.08, 5.56, 5.39 and 7.70.
Taken in the same sequence, the figures for KTDEGGDWK [Peptide 88.0380] were 5.00, 5.44, 4.88, less than 4.70 and 6.39.
On the same counts, the results for FADLTVVYR [Peptide 78.0318] are 7.41, 4.72, 6.51, 5.75 and 5.04.
On to TVQVYFDGNK [Peptide 88.0202], for which the pIC50 against A*6801 was 6.92; on HLA-A3.2 (A*0301), 5.96; on A*3301, 4.81; against A31 (A*3101) it was 5.34; at HLA-A11 (A*1101), 7.85.
Taken in the same sequence, the figures for AQVLHLLKRK [Peptide 1587.52] were less than 4.70, 6.47, less than 4.70, 4.74 and 6.51.
Regarding TFWNPPTTAR [Peptide 1556.02], the negative-log IC50 (pIC50) against A*6801 is 7.54; at HLA-A3.2 (A*0301), 4.74; at A*3301, 7.40; against A31 (A*3101), 7.24; on HLA-A11 (A*1101) it was 5.82.
On the same counts, the results for LTSQIEHWK [Peptide 88.0439] are 7.62, 5.31, less than 4.70, 5.05 and 7.85.
Taken in the same sequence, the figures for VSIEWRLRR [Peptide 9017.0088] were 6.88, 6.47, 7.54, 8.51 and 8.16.
On the same counts, the results for SFFQNLQVIR [Peptide 9012.0232] are 5.85, 5.42, 6.15, 6.36 and 5.40.
With ETLNASPYK [Peptide 1589.39], the pIC50 on A*6801 was 7.55; on HLA-A3.2 (A*0301) it was 6.79; against A*3301, 5.33; against A31 (A*3101), less than 4.70; at HLA-A11 (A*1101), 7.57.
On the same counts, the results for ILLLLIRFK [Peptide 88.0386] are 5.60, 6.92, 6.40, 7.32 and 5.73.
Taken in the same sequence, the figures for NVAPIVHLK [Peptide 1589.21] were 8.62, 5.20, less than 4.70, less than 4.70 and 6.40.
Taken in the same sequence, the figures for TIAYIEYRK [Peptide 9017.0119] were 8.11, 6.04, 6.05, 5.48 and 7.62.
Regarding TTNCTYKGR [Peptide 1589.41], the negative-log IC50 (pIC50) is 7.42 against A*6801; less than 4.70 on HLA-A3.2 (A*0301); 6.78 at A*3301; 7.24 at A31 (A*3101); 5.66 on HLA-A11 (A*1101).
On to LSALKLFLK [Peptide 1587.39], for which the pIC50 against A*6801 was 5.66; at HLA-A3.2 (A*0301), 6.02; at A*3301 it was 5.74; against A31 (A*3101), 7.02; on HLA-A11 (A*1101) it was 7.51.
On the same counts, the results for WTYFDTYMR [Peptide 88.0346] are 8.42, less than 4.70, 7.02, 6.48 and 6.53.
Taken in the same sequence, the figures for SVYGDTLEK [Peptide 78.0277] were 7.77, 7.14, less than 4.70, less than 4.70 and 7.85.
Taken in the same sequence, the figures for QVVPPINISK [Peptide 1589.23] were 7.85, 5.89, less than 4.70, 5.81 and 7.96.
Regarding ISWLGLRSLK [Peptide 9012.0234], the pIC50 on A*6801 is 7.41; against HLA-A3.2 (A*0301) it was 7.51; at A*3301 it was 5.60; against A31 (A*3101), 6.58; at HLA-A11 (A*1101), 7.74.
Taken in the same sequence, the figures for KTLLQPYCLY [Peptide 88.0153] were less than 4.70, 6.74, 4.71, 5.37 and 6.39.
On the same counts, the results for KLVEDRWNK [Peptide 9017.0107] are 4.75, 6.58, less than 4.70, 7.21 and 6.99.
Taken in the same sequence, the figures for ISYGRKKRRQK [Peptide 73.0314] were 5.35, 7.32, less than 4.70, 5.50 and 5.55.
For MLVRFKCAK [Peptide 1587.30], the pIC50 against A*6801 was 6.06; on HLA-A3.2 (A*0301), 6.82; against A*3301 it was 6.01; against A31 (A*3101) it was 7.07; on HLA-A11 (A*1101) it was 6.73.
On to SFFSRTWCR [Peptide 1587.42], for which the pIC50 at A*6801 is 7.55; on HLA-A3.2 (A*0301), 5.62; at A*3301, 8.46; against A31 (A*3101), 8.66; against HLA-A11 (A*1101) it was 6.81.
Take TILWKDIFHR [Peptide 9012.0223]: the negative logarithm of the IC50 (pIC50) against A*6801 is 7.59; on HLA-A3.2 (A*0301), 5.71; at A*3301, 7.96; on A31 (A*3101) it was 7.48; on HLA-A11 (A*1101) it was 8.00.
Take ATTPIIHLK [Peptide 1589.18]: the pIC50 was 8.17 against A*6801; 8.01 against HLA-A3.2 (A*0301); 4.95 on A*3301; 7.31 against A31 (A*3101); 8.12 on HLA-A11 (A*1101).
As to AILGHIVRPR [Peptide 9017.0226], the pIC50 is 6.63 against A*6801; 7.31 on HLA-A3.2 (A*0301); 6.62 against A*3301; 8.15 on A31 (A*3101); 6.80 against HLA-A11 (A*1101).
Taken in the same sequence, the figures for RQMNMSQWIK [Peptide 1587.54] were 5.51, 7.74, less than 4.70, 7.39 and 8.12.
Regarding KSFLKGTPKK [Peptide 88.0149], the pIC50 is less than 4.70 at A*6801; 7.32 on HLA-A3.2 (A*0301); less than 4.70 on A*3301; 6.24 against A31 (A*3101); 7.05 against HLA-A11 (A*1101).
On to MALESILRK [Peptide 9012.0214], for which the negative-log IC50 (pIC50) against A*6801 was 6.36; against HLA-A3.2 (A*0301), 6.67; against A*3301 it was 5.26; against A31 (A*3101) it was less than 4.70; against HLA-A11 (A*1101) it was 7.89.
On the same counts, the results for QTCALYWFR [Peptide 88.0361] are 7.74, 5.71, 7.72, 7.29 and 7.19.
On the same counts, the results for SVYGTTLEK [Peptide 78.0282] are 7.82, 7.72, less than 4.70, 5.05 and 8.42.
